The values below come from article PMC4391943, “Novel Epigallocatechin-3-Gallate (EGCG) Derivative as a New Therapeutic Strategy for Reducing Neuropathic Pain after Chronic Constriction Nerve Injury in Mice” (PLoS ONE, 2015).

Like-named read-outs stand apart in the source and are kept apart here.

Details of series [1]: method as in PMID 22559865. Particulars: daily doses of 5, 25 or 40 mg/Kg; cited from earlier work.
The test system of the next series is FASN. Also on record: method as in PMID 22559865. The note with it: previously reported; cited from earlier work.
Series [2] in a line: Toxicity studies: body weight, food and fluid intake, histological examination. The series is classed as in vivo, mice. The note with it: vs control animals (data not shown).
The subject of another series is TNF-α, IL-1β and IL-6. The series can be described thus: Western blot of cytokine protein levels in the dorsal horn of the spinal cord. The series is classed as in vivo, mice. The note with it: 50 mg/Kg, 14 dpi. The protocol: Mice (n = 5 per group) were sacrificed with sodium pentobarbital (90 mg/kg; i.p.) at 14 and 56 dpi and spinal cord segments distal to T12 vertebra were quickly removed and frozen. For total protein extraction, the dorsal horn of the spinal cord was homogenized in modified RIPA buffer (50 mM Tris–HCl pH 7.5, 1% Triton X-100, 0.5% sodium deoxycholate, 0.2% SDS, 100 mM NaCl, 1 mM EDTA, 2 mM PMSF, 1 μg/μL aprotinin, 1 μg/μL leupeptin and 2 mM sodium orthovanadate).
Western blotting was performed as previously described. The following primary antibodies were used: anti-FASN (1:1000, BD Bioscience, San Jose, CA); anti-TNF-α, anti-IL-1β, anti-IL-6 and anti-NFκB (all 1:500, Santa Cruz Biotechnology, Santa Cruz, CA); anti-phosphoNMDAR2B (Tyr1472) (1:2000, Affinity Bioreagents, Golden, CO) and anti-NMDAR2B (1:1000, Chemicon, Temecula, CA). Loading control was performed by reprobing the membranes with anti-actin (1:10,000; MP Biochemicals, Aurora, OH), anti-NeuN (1:1,000; Chemicon) or anti-N-cadherin (1:1000, BD Bioscience). Membranes were incubated with the corresponding horseradish peroxidase-conjugated antibody (1:2,000; Promega, Madison, WI). Immunoreactive bands were visualized using the Western Blotting Luminol Reagent and quantified by a computer-assisted densitometer (Gel-Pro Analyzer, version 4, Media Cybernetics).
Background: A western blot detects proteins with antibodies after separation by electrophoresis.

A short description of series [3]: Hepatic, renal and hematological function serum markers in treated mice. The series is classed as in vivo, Balb/c. The note with it: for Hematocrit / Hemoglobin / Lymphocytes / Monocytes / Neutrophils / platelet count: Balb/c; for ALP (alkaline phosphatase), hepatic function / ALT (alanine transaminase), hepatic function / AST (aspartate transaminase), hepatic function / BUN (urea), renal function / Creatinin, renal function: Balb/c serum.

Turning to `O=C(Oc1cccc2c(OC(=O)c3cc(O)c(O)c(O)c3)cccc12)c1cc(O)c(O)c(O)c1` [Compound 23, 1,5-Bis [(3,4,5-trihydroxybenzoyl)oxy] naphthalene], the “hepatic, renal and hematological function serum markers vs control” value in series [1] is “no significant alteration”. Also, in the series on FASN, the “% of FASN inhibition” value was 30%. The “histological examination of liver, heart, kidney lung and brain” value in series [2] is reported as “no microscopic evidence of drug induces toxicity”.
As to epigallocatechin-3-gallate [EGCG], the “protein levels of TNF-α, IL-1β and IL-6 compared to vehicle group” value in the series on TNF-α, IL-1β and IL-6 is given as “reduced”.
In series [3] (50 mg/Kg), `O=C(Oc1ccc(-c2ccc(OC(=O)c3cc(O)c(O)c(O)c3)cc2)cc1)c1cc(O)c(O)c(O)c1` [Compound 30, 4,4′-Bis [(3,4,5-trihydroxybenzoyl)oxy]-1,1′-biphenyl] had a Hematocrit of 42.4 ± 2.2%, a Hemoglobin of 14.2 ± 0.8 g/dL, a Lymphocytes of 51.2 ± 13.9% and a Monocytes of 1.4 ± 0.1%. Besides, in series [3] (50 mg/Kg), the Neutrophils came out at 32.0 ± 22.9%; the platelet count is 826 10^3/µL; the “ALP (alkaline phosphatase), hepatic function” value was determined as 97.2 ± 20.3 U/L; the “ALT (alanine transaminase), hepatic function” value is listed as 210.3 ± 28.2 U/L. In addition, in series [3] (50 mg/Kg), the “AST (aspartate transaminase), hepatic function” value is 266.5 + 80.3 U/L; the “BUN (urea), renal function” value was 21.9 ± 7.5 mg/dL; the “Creatinin, renal function” value came out at 0.30 ± 0.1 mg/dL. For the same molecule, in series [3] (75 mg/Kg), the Hematocrit is 38.3 ± 2.8%, the Hemoglobin was found to be 13.6 ± 0.3 g/dL, the Lymphocytes is 50.2 ± 7.5% and the Monocytes worked out at 1.9 ± 1.4%. In series [3] (75 mg/Kg), the Neutrophils came to 30.7 ± 8.1%; the platelet count is 849 10^3/µL; the “ALP (alkaline phosphatase), hepatic function” value was 86.5 ± 30.3 U/L; the “ALT (alanine transaminase), hepatic function” value was 290.2 + 31 U/L. In addition, in series [3] (75 mg/Kg), the “AST (aspartate transaminase), hepatic function” value is 320.3 + 45.5 U/L; the “BUN (urea), renal function” value turned out to be 21.1 ± 6.8 mg/dL; the “Creatinin, renal function” value turned out to be 0.31 ± 0.1 mg/dL. Moreover, in series [3] (daily doses of 50 and 75 mg/Kg (S2 Table)), the “hepatic, renal and hematological function serum markers vs control” value was “no significant alteration”. For the same molecule, the “% of FASN inhibition” value in the series on FASN is 90%. The “histological examination of liver, heart, kidney lung and brain” value in series [2] is given as “no microscopic evidence of drug induces toxicity”. Further, the “protein levels of TNF-α, IL-1β and IL-6 compared to vehicle group” value with TNF-α, IL-1β and IL-6 is reported as “reduced”.
